We go through 20 molecules from PubChem BioAssay (NCI).

Among the test systems are DMS 114 small cell lung; DMS 273 small cell lung; KM20L2 colon; M19-MEL melanoma; SNB-78 CNS; LXFL 529 NSCLC; RXF-631 renal; MDA-N; HOP-18 NSCLC.
Test in all cases: inhibition of tumour cell growth, NCI panel, 48 h

Molecules are shown by their SMILES.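 96-well plates; 48 h exposure; 5 concentrations. Endpoints by linear interpolation between flanking doses. Not reached: highest tested concentration assigned. GI50 = concentration required for 50% inhibition of growth. At the TGI there is no net growth.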 Bounds are passed on as bounds.

Consider `COC(=O)Cc1cc(=O)n2c([nH]c3ccccc32)c1C#N`, for which the TGI with DMS 114 small cell lung, in the assay on DMS 273 small cell lung, in the assay on KM20L2 colon, with M19-MEL melanoma and in the assay on SNB-78 CNS was above 100 µM throughout.
On to `C#Cc1cc(CN(CC(=O)OC(C)(C)C)CC(=O)OC(C)(C)C)nc(CN(CC(=O)OC(C)(C)C)CC(=O)OC(C)(C)C)c1`, for which the TGI with DMS 114 small cell lung amounted to 11.5 µM; in the assay with DMS 273 small cell lung, 28.6 µM; in the assay on KM20L2 colon, 69.7 µM; in the assay with LXFL 529 NSCLC, 11.4 µM; in the assay on M19-MEL melanoma, 83.2 µM; in the assay on RXF-631 renal it was 38.7 µM. Moreover, the TGI in the assay with SNB-78 CNS stood at 70.4 µM.
`CC1=CC(=O)c2ccc(C)cc2C1=O` registered a TGI in the assay on MDA-N of 1.17 µM.
Still for that read-out and setting: under `CC(C)c1ccc2nc3ccc(C(=O)NCCN4CCN(c5ccccc5)CC4)cn3c(=O)c2c1` stands above 100 µM; under `Cn1c(=O)c2[nH]c(CCCCc3nc4c([nH]3)c(=O)n(C)c(=S)n4C)nc2n(C)c1=S`, above 100 µM.
As to `CC(=O)[O][Bi]([c]1ccccc1)[c]1ccccc1`, in the assay with MDA-N, the GI50 was 7.57 µM and the TGI came to 20.3 µM.
For `c1ccc2c(c1)[nH]c1c2ncc2[nH]c3ccccc3c21`, the TGI amounted to 6.69 µM with DMS 114 small cell lung; 9.39 µM with DMS 273 small cell lung; 14.9 µM in the assay on HOP-18 NSCLC; 12.5 µM in the assay with KM20L2 colon; 13.2 µM in the assay with LXFL 529 NSCLC; 15.8 µM in the assay with M19-MEL melanoma. Further, the TGI in the assay with RXF-631 renal worked out at 5.05 µM; in the assay on SNB-78 CNS, 27.2 µM.
Consider `Cc1c(CC/C(=N\Nc2ccc([N+](=O)[O-])cc2[N+](=O)[O-])c2ccccc2)c2ccccc2n1C`, for which the TGI in the assay on DMS 114 small cell lung, in the assay with DMS 273 small cell lung, in the assay with KM20L2 colon, with LXFL 529 NSCLC, in the assay with M19-MEL melanoma and in the assay on RXF-631 renal was above 100 µM throughout. Further, the TGI with SNB-78 CNS was above 100 µM.
In turn, `Nc1nc(-c2cccs2)cs1` showed a TGI in the assay on MDA-N above 100 µM.
With `Cc1ccc(NC(=O)CC2C(=O)Nc3ccccc3S2=O)c(C)c1` (centres undefined), the TGI is 34.4 µM in the assay on DMS 114 small cell lung; above 54.1 µM in the assay on DMS 273 small cell lung; 67.4 µM in the assay with HOP-18 NSCLC; above 49.1 µM with KM20L2 colon; 61.6 µM in the assay on LXFL 529 NSCLC; above 69.1 µM in the assay on M19-MEL melanoma. The figures for the TGI in the assay with RXF-631 renal and in the assay on SNB-78 CNS were above 71.3 µM and 47.6 µM, respectively.
Turning to `CCCCCCCCCCCCC(CCCCCCCCCCCC)OP(=O)(O)O`, the TGI with DMS 114 small cell lung, in the assay with DMS 273 small cell lung, with HOP-18 NSCLC, in the assay on KM20L2 colon, in the assay on LXFL 529 NSCLC and with M19-MEL melanoma was above 100 µM each time. In addition, the TGI in the assay with RXF-631 renal and in the assay on SNB-78 CNS was above 100 µM in each case.
Consider `CCOC(=O)C(C(=O)OCC)=c1sc(=C(C(=O)OCC)C(=O)OCC)s1`, for which the TGI in the assay with DMS 273 small cell lung, in the assay on KM20L2 colon, in the assay on LXFL 529 NSCLC, in the assay with M19-MEL melanoma and in the assay on SNB-78 CNS was above 100 µM each time.
As to `COc1ccc(C2C3=C(COC3=O)Oc3cc4c(cc32)OCO4)cc1` (centres undefined), the TGI in the assay with DMS 114 small cell lung is 38.2 µM; with DMS 273 small cell lung, above 100 µM; in the assay on HOP-18 NSCLC, 89.5 µM; with KM20L2 colon, 38.9 µM; with M19-MEL melanoma it was above 100 µM; in the assay on SNB-78 CNS it was above 100 µM.
Regarding `CC[CH2][Sn]([CH2]CC)([O]C(=O)Cc1ccc(F)cc1)[O][Sn]([CH2]CC)([CH2]CC)[O]C(=O)Cc1ccc(F)cc1`, the GI50 with DMS 114 small cell lung is 0.029 µM; in the assay on DMS 273 small cell lung, 0.205 µM; in the assay on HOP-18 NSCLC it was 0.25 µM; in the assay on KM20L2 colon, 0.662 µM; in the assay with LXFL 529 NSCLC, 0.0129 µM; in the assay on M19-MEL melanoma, 0.0593 µM. In addition, the GI50 with MDA-N is 0.317 µM. Also, the TGI was 0.119 µM in the assay on DMS 114 small cell lung; 1.13 µM in the assay on DMS 273 small cell lung; 0.828 µM in the assay on HOP-18 NSCLC; 1.98 µM in the assay on KM20L2 colon; 0.099 µM in the assay with LXFL 529 NSCLC; 0.276 µM with M19-MEL melanoma. In addition, the TGI with MDA-N turned out to be 1.43 µM.
With `CC1=Nc2ccccc2C12C(c1ccccc1)C(c1ccccc1)C(=O)N1c3ccccc3CC12` (centres undefined), the TGI in the assay with DMS 114 small cell lung, in the assay on DMS 273 small cell lung, in the assay with KM20L2 colon, in the assay on LXFL 529 NSCLC, with RXF-631 renal and in the assay on SNB-78 CNS was above 100 µM throughout.
`N#CSc1ccc(S(N)(=O)=O)cc1` had a TGI in the assay on MDA-N above 100 µM.
As for `COC(=O)[C@@]12C=CC(=O)[C@H]3C[C@@H](C(C(C)C)C1)[C@]32OC` (some centres undefined), the TGI with DMS 114 small cell lung, with DMS 273 small cell lung, with HOP-18 NSCLC, with KM20L2 colon, with LXFL 529 NSCLC and in the assay on M19-MEL melanoma was above 100 µM throughout. The TGI with RXF-631 renal and with SNB-78 CNS was above 100 µM each time.
On to `O=NN(CCCl)C(=O)N[C@H]1CCCC[C@@H]1Cl`, for which the TGI with DMS 114 small cell lung, in the assay on DMS 273 small cell lung, in the assay on HOP-18 NSCLC, with KM20L2 colon, in the assay on LXFL 529 NSCLC and in the assay with M19-MEL melanoma was above 100 µM in each case.
Take `COC(=O)C(=O)C(C(=O)OC)C(=O)C(=O)Nc1cc(Cl)c(Cl)cc1Cl` (centres undefined): the TGI with DMS 114 small cell lung was 30.8 µM; with DMS 273 small cell lung, above 100 µM; with HOP-18 NSCLC, above 100 µM; in the assay on KM20L2 colon, above 100 µM; in the assay on LXFL 529 NSCLC, above 100 µM; in the assay with M19-MEL melanoma, above 100 µM. The molecule also came in with a TGI in the assay on RXF-631 renal above 100 µM.
For `COC(=O)C1=C(C)N(NC(N)=O)C(C)(O)C12CCOC2=O` (centres undefined), the TGI with DMS 114 small cell lung, with DMS 273 small cell lung, in the assay on HOP-18 NSCLC, in the assay with KM20L2 colon, in the assay with LXFL 529 NSCLC and in the assay with M19-MEL melanoma was above 100 µM throughout. Besides, the TGI in the assay with SNB-78 CNS was above 100 µM.
